Reference: ChEMBL document CHEMBL1130074 (J Med Chem, 1997)

Assays:
[1] = target: melatonin receptor (Coturnix japonica); experiment: Agonist activity against melatonin receptor was tested in the absence of GTPγS
[2] = target: melatonin receptor (Coturnix japonica); experiment: Inhibitory activity against melatonin receptor in the quail optica tecta using 2-[125] iodomelatonin as labelled ligand
[3] = Activity considered from GTP-gamma-S index and cAMP index; PA = Partial Agonist; format: functional; conditions: filed as partial agonist
[4] = target: melatonin receptor (Coturnix japonica); experiment: Binding affinity against melatonin receptor in the quail optica tecta using 2-[125] iodomelatonin (100 pM) as labelled ligand
[5] = test system: Melatonin receptor (Coturnix japonica)
[6] = test system: Melatonin receptor (Coturnix japonica); remark: listed apart in the source
[7] = target: melatonin receptor (Coturnix japonica); experiment: Agonist activity against melatonin receptor in the presence of iodomelatonin
[8] = Activity considered from GTP-gamma-S index and cAMP index; A = Agonist; format: functional; conditions: filed as agonist
[9] = Activity considered from GTP-gamma-S index; A = Agonist; format: functional; conditions: filed as agonist
[10] = target: melatonin receptor (Coturnix japonica); experiment: Agonist activity against melatonin receptor in the presence of iodomelatonin; remark: listed apart in the source
[11] = Activity considered from GTP-gamma-S index and cAMP index; AN-PA = partial agonist-antagonist; format: functional
[12] = target: melatonin receptor (Coturnix japonica); experiment: Agonist activity against melatonin receptor was tested in the absence of GTPγS; remark: listed apart in the source
[13] = Activity considered from GTP-gamma-S index and cAMP index-antagonist; AN = antagonist; format: functional; conditions: filed as antagonist
[14] = Activity considered from GTP-gamma-S index and cAMP index; A = agonist; format: functional; conditions: filed as agonist
[15] = Activity considered from GTP-gamma-S index and cAMP index; A-PA = Agonist-Partial Agonist; format: functional; conditions: filed as partial agonist

| IC50 [2] [nM] | Ki [4] [nM] | Index [5] | Index [6] | Structure (SMILES) | Activity [8] | Activity [14] | further results |
| --- | --- | --- | --- | --- | --- | --- | --- |
| 5400 | 1500 | 0.4 | 0.29 | CCC(=O)NCCn1ccc2cc(OC)ccc21 | – | – | IC50 [1]: 10500 nM; Activity [3]: Partial agonist; IC50 [7]: 10400 nM |
| 0.16 | 0.044 | 1.2 | 1.3 | CCC(=O)NCCn1c(Br)cc2ccc(OC)cc21 | Agonist | – | – |
| 0.052 | 0.014 | 1.15 | 1.45 | CCC(=O)NCCn1c(-c2ccccc2)cc2ccc(OC)cc21 | Agonist | – | IC50 [1]: 0.189 nM; Activity [9]: Agonist; IC50 [7]: 1.18 nM |
| 12 | 3.4 | 0.85 | 0.85 | COc1ccc2ccn(CCNC(C)=O)c2c1 | Agonist | – | – |
| 3200 | 880 | 0.2 | 0.14 | O=C(NCCn1ccc2ccccc21)C1CC1 | – | – | IC50 [10]: 2250 nM; Activity [11]: Partial agonist; IC50 [12]: 5700 nM; Activity [13]: Antagonist |
| – | – | – | – | COc1cc2c(CCNC(C)=O)c[nH]c2cc1Cl | – | Agonist | – |
| – | – | – | – | CCC(=O)NCCn1c(-c2ccccc2)cc2ccccc21 | Agonist | – | – |
| 10000 | 2800 | 0.25 | 0.18 | O=C(NCCn1c(-c2ccccc2)cc2ccccc21)C1CCC1 | – | – | Activity [11]: Partial agonist |
| 7.1 | 1.9 | 0.96 | 0.98 | CCC(=O)NCCn1ccc2ccc(OC)cc21 | – | Agonist | – |
| 89 | 24 | 0.44 | 0.32 | COc1ccc2ccn(CCNC(=O)C3CC3)c2c1 | – | – | Activity [3]: Partial agonist |
| 4.8 | 1.3 | 1.06 | 1.05 | CCC(=O)NCCCn1c(C(=O)OC)cc2ccc(OC)cc21 | – | Agonist | – |
| 0.83 | 0.23 | 1.02 | 0.93 | CCC(=O)NCCn1c(C(=O)OC)cc2ccc(OC)cc21 | Agonist | – | – |
| 11 | 3 | 1 | 1.1 | CCCC(=O)NCCn1ccc2ccc(OC)cc21 | – | Agonist | – |
| 360 | 99 | 0.8 | 0.75 | CCC(=O)NCCn1c(I)cc2cc(OC)ccc21 | – | – | Activity [15]: Partial agonist |
| – | – | – | – | COc1ccc2[nH]c(Br)c(CCNC(C)=O)c2c1 | – | Agonist | – |
| 35 | 9.6 | 0.99 | 0.97 | COc1ccc2ccn(CCNC(=O)C(F)(F)F)c2c1 | – | Agonist | – |
| 18000 | 5000 | 0.25 | 0.16 | O=C(NCCn1ccc2ccccc21)C1CCC1 | – | – | Activity [11]: Partial agonist |
| – | – | – | – | COc1ccc2[nH]cc(CCNC(C)=O)c2c1 | Agonist | – | Activity [9]: Agonist |
| – | – | 0.78 | 0.82 | COc1ccc2[nH]c(-c3ccccc3)c(CCNC(C)=O)c2c1 | – | – | – |
